What all share (format): physicochemical
The nature of series [1]: Hygroscopicity study, European Pharmacopeia Ed. 6.0 Section 5.11 (degree of hydration at 80% and 97% RH, 25° C.). Conditions: for Higroscopicity RH 80% / Higroscopicity RH 97%: water content by weight difference. How it is done:
International application WO 2009/085990 A2 describes the production of an anhydrous crystalline form of sitagliptin sulfate salt and its characterization by means of DSC (Differential Scanning calorimetry), TGA (Thermal Gravimetric Analysis) and XRPD (X-Ray Powder Diffraction). However and in the hands of the inventors of the present application, said crystalline form is hygroscopic under the conditions of the European Pharmacopeia Ed. 6.0 Section 5.11 (24 hours at 80% RH and 25° C.), readily reaching a water proportion corresponding to a dihydrate form. […] A stability study of the M form of sitagliptin sulfate was performed under conditions of the European Pharmacopeia Ed. 6.0 Section 5.11, i.e., the degree of hydration was measured at 80% relative humidity (RH) at a temperature of 25° C. Additionally, the degree of hydration was also measured at 97% relative humidity (RH) at a temperature of 25° C. The results are shown in Table 1, wherein the higroscopicity (expressed as the water content by means of weight difference, following the procedure described in European Pharmacopeia Ed. 6.0 Section 5.11) of samples of 1 g of sitagliptin sulfate polymorph M of the present invention after storage at 1 day, 3 days, 7 days, 14 days and 21 days at 80% RH and 97% RH, respectively. […] 6.0 Section 5.11, i.e., the degree of hydration is less than 0.2%. The crystalline form of sitagliptin sulfate after 21 days at a relative humidity of 80% and 97%, respectively, were analyzed by means of X-ray diffraction.

A short description of series [2]: Water content determined by thermal gravimetric analysis (TGA). How it is done:
TGA analyses were performed using a Mettler/Toledo TGA/SDTA851e thermobalance. Parameters: heating range from 30 to 300° C. with a 10° C./min ramp and a 50 ml/min dry N2 flow.

Series [3] is described as follows: Accelerated stability study (40° C.±2° C., 75%±5% RH), water content by Karl-Fisher and XRPD. Conditions: for Water content: Karl-Fisher. The method, then:
Water Content (Karl-Fisher Method) The analysis is performed in a Mettler Toledo W30. It is determined in 0.2 g of sample using Hydranal medium K as solvent and Hydranal composite 5K as titrant. Accelerated stability study of the M form of sitagliptin sulfate was performed under the following conditions: temperature of 40° C.±2° C. and relative humidity (RH) of 75%±5%. The water content of the sample was determined at the beginning of the study, at 3 months and at 6 months, by means of Karl-Fisher. The crystalline form of sitagliptin sulfate after 6 months was analyzed by means of X-ray diffraction.

Series [4] in a line: Crystalline form after grinding. The method, then:
100.0 g (245.5 mmoles) of sitagliptin base were dissolved at 20-22° C. in a mixture of 750 ml of absolute ethanol and 120 ml of water. A previously prepared solution of 98.1% H2SO4 ([…], 240.9 mmoles) in ethanol (760 ml) was slowly added to said solution, maintaining the temperature between 20-25° C. When approximately ⅔ of the total volume of the acid solution had been added, the addition was stopped and 1.0 g (1.978 mmoles) of crystalline form M of sitagliptin sulfate obtained by means of any of the processes described in Examples 1 and 3-5 was added to the reaction mixture. The presence of a white precipitate that remains undissolved was immediately noticed. The addition of the acid solution was continued and once this ended, the mixture obtained was maintained at a temperature of 20-25° C. for 4 hours. The solid obtained was filtered and washed in the filter with absolute ethanol (2×100 ml). The wet product was dried in a vacuum oven at 40° C. for 22 hours to yield 97.1 g (192.1 mmoles) of a white crystalline solid (77.6%). XRPDs both of the wet product (FIG. 3) and of the dry product (FIG. 2) which correspond with form M of sitagliptin sulfate were performed. […] (FIG. 8). The water content determined by TGA (FIG. 13) is 0.02%.

The mark [5] stands for this setting: 80% RH and 97% RH, 25° C., up to 21 days.

Structures can show the parent of a compound that is named as a salt. Where two headings read alike, the source gives them in different places.

Take `N[C@@H](CC(=O)N1CCn2c(nnc2C(F)(F)F)C1)Cc1cc(F)c(F)cc1F.O=S(=O)(O)O` [reference compound]: the “hygroscopicity (in words)” value in series [1] (24 hours at 80% RH and 25° C., in the hands of the inventors) was “hygroscopic”.
Regarding `N[C@@H](CC(=O)N1CCn2c(nnc2C(F)(F)F)C1)Cc1cc(F)c(F)cc1F` [form M, addition salt of sitagliptin with sulfuric acid (1:1)], the “Higroscopicity RH 80%” value in series [1] (25° C., 80% RH, 1 day) is reported as 0.07%; in series [1] (25° C., 80% RH, 3 days), 0.10%; in series [1] (25° C., 80% RH, 7 days) it was 0.12%; in series [1] (25° C., 80% RH, 14 days) it was 0.10%; in series [1] (25° C., 80% RH, 21 days), 0.07%. The “Higroscopicity RH 97%” value in series [1] (25° C., 97% RH, 1 day) is reported as 0.05%; in series [1] (25° C., 97% RH, 3 days) it was 0.08%; in series [1] (25° C., 97% RH, 7 days) it was 0.06%; in series [1] (25° C., 97% RH, 14 days) it was 0.06%; in series [1] (25° C., 97% RH, 21 days), 0.07%. Also, the degree of hydration entry in series [1] (setting [5]) was “less than 0.2%”; in series [1] (80% relative humidity, 25° C.), “less than 0.2%”. Besides, the “hygroscopicity (in words)” value is given as “non-hygroscopic” in series [1] (setting [5]) and “non-hygroscopic” in series [1] (80% relative humidity, 25° C., Ph. Eur. 6.0 Section 5.11). The “crystalline form by XRPD after storage” value in series [1] (21 days, 25° C., 80% RH) is recorded as “corresponding to form M of sitagliptin sulfate”; in series [1] (21 days, 25° C., 97% RH), “corresponding to form M of sitagliptin sulfate”; in series [3] (6 months, 40° C.±2° C., 75%±5% RH) it was “corresponding to form M of sitagliptin sulfate”. Moreover, the “water content determined by TGA” value in series [2] is listed as “less than 0.05%”; in series [2] (listed as Example 1), 0.02%; in series [2] (listed as Example 2), 0.02%; in series [2] (listed as Example 3) it was 0.03%; in series [2] (listed as Example 4), 0.01%; in series [2] (listed as Example 5), 0.004%. In addition, the Water content in series [3] (3 months at 40° C.±2° C., 75%±5% RH) amounted to 0.09%; in series [3] (6 months at 40° C.±2° C., 75%±5% RH), 0.01%; in series [3] (Initial) it was 0.09%. Further, the “crystalline form of the ground product” value in series [4] is given as “still the crystalline form of sitagliptin sulfate object of the present invention”.

The record behind these values is patent US9181260B2, “Crystalline form of sitagliptin sulfate” (MOEHS IBERICA S.L., priority 2012, dated 2015).
